From patent US20080045796A1, “HISTOFLUORESCENT STAIN COMPOSITION FOR ENDOSCOPY” (PENTAX CORPORATION, priority 2006, published 2008)

How the values were obtained:
[1] = system: esophagus part of a mouse; experiment: Extracted esophagus stained, confocal microscope observation; conditions: 10 mg/mL, pH 7
Protocol: The esophagus part of a mouse (ddY, 11 weeks old, male) was extracted, stained using Brilliant Blue FCF, and observed with a confocal microscope (Leica Microsystems Corp., TCP-SP2).
The Brilliant Blue FCF used was prepared to 10 mg/mL using a 0.1 M sodium phosphate buffer solution (pH 7).
The imaging conditions were such that the pinhole diameter was 1.00 airy, and a lens of 20 magnifications was used.

[2] = Measurement of absorption spectrum and fluorescence excitation spectrum; type: physicochemical; conditions: for maximum absorption wavelength: 1.0 mg/ml, spectrophotometer 200 to 750 nm; for maximum excitation wavelength / maximum fluorescence wavelength: fluorescence spectrophotometer
Protocol: Measurement of an absorption spectrum and a fluorescence excitation spectrum of Fast Green FCF was performed. The Fast Green FCF (Wako Pure Chemical Industries, Ltd.) was adjusted to 1.0 mg/ml, and the light absorbance was continuously measured at a wavelength of from 200 to 750 nm using a spectrophotometer (manufactured by Shimadzu Corp., BioSpec-1600) to determine the wavelength at which the absorbance reached the maximum. The maximum absorption wavelength of 628 nm thus obtained was irradiated as an excitation wavelength, and the wavelength of the scattered light detected in the perpendicular direction to the light axis of the excitation light was measured using a fluorescence spectrophotometer (manufactured by Shimadzu Corp., RF-1500), thus to obtain a maximum excitation wavelength of 628 nm and a maximum fluorescence wavelength of 652 nm.

large intestine = experiment: Perfusion through the heart with Patent Blue, confocal observation of large intestine specimen and frozen section; type: in vivo, mouse
Protocol: Patent Blue was used for staining and observation with a confocal microscope. Patent Blue (Sigma-Aldrich Corp., Patent Blue VF) was prepared to 10 mg/mL with physiological saline, and was perfused through the heart of a mouse (ddY, 6 weeks old, male) to perform staining.
The mouse was subjected to laparotomy to extract the large intestine, and an observation was made for a specimen with a confocal system.
The imaging conditions were such that a lens of 20 magnifications was used, and the pinhole diameter was 1.00 airy. As the confocal microscope, TCP-SP2 manufactured by Leica Microsystems Corp. was used.
A frozen section prepared by slicing the mouse large intestine stained in Example 9 to approximately 6 μm was observed under fluorescence to observe the stainability. An adjacent frozen section was used to perform HE staining and was compared to characterize the sites where fluorescent observation was possible by Patent Blue staining.
(§1) A confocal microscope was used for the observation, which was made at 20, 40 or 63 magnifications.

gastrointestinal lumen = experiment: Perfusion through the heart with Guinea Green, observation of a frozen section; type: in vivo, mouse; conditions: 10 mg/mL, 600 μL perfused through the heart
Protocol: The gastrointestinal lumen was stained using Guinea Green, and the stainability was examined by observation of a frozen section.
Guinea Green (Sigma-Aldrich Corp., Guinea Green B) was prepared to 10 mg/mL with physiological saline, and was perfused through the heart of a mouse (ddY, 6 weeks old, male) in an amount of 600 μL.
Also, it was compared with another frozen section used to perform HE staining, and the sites capable of fluorescent observation by Guinea Green staining were characterized.
as §1

mouse large intestine = experiment: Tissue staining by perfusion method, confocal observation of extracted large intestine specimen; conditions: 1 mg/mL with physiological saline
Protocol: IndoCyanine Green (adjusted to 1 mg/mL with physiological saline), which is a medical contrast agent, was used to perform tissue staining. Mouse large intestine was stained by a perfusion method, and observation of an extracted specimen of the large intestine was performed using a confocal microscope (Leica Microsystems Corp., TCP-SP2).

can be excited at, for example [2] [nm]	fluorescence detected at [2] [nm]	maximum absorption wavelength [2] [nm]	maximum excitation wavelength [2] [nm]	maximum fluorescence wavelength [2] [nm]	Molecule	fluorescent contrast in confocal images [1]	depth from the luminal surface of clear images ([1]; images at every 5.0 μm)	staining visible by naked eyes (large intestine; 10 mg/mL, 600 μL perfused through the heart)	fluorescence of frozen section (large intestine; approximately 6 μm frozen section)	confocal observation of the tissue (large intestine; area 60 μm deep from the luminal surface)	observation capability (large intestine; frozen section under fluorescence)	fluorescence of frozen section (gastrointestinal lumen)	observation capability of the confocal system (gastrointestinal lumen)	fluorescence intensity (fluorescence spectrum) ([2]; compared with Fast Green FCF, FIG. 2)	fluorescence intensity inside the tissue (mouse large intestine)
629	650	629	619	650	CCN(Cc1cccc(S(=O)(=O)[O-])c1)c1ccc(C(=C2C=CC(=[N+](CC)Cc3cccc(S(=O)(=O)[O-])c3)C=C2)c2ccccc2S(=O)(=O)[O-])cc1.[Na+].[Na+] [Brilliant Blue FCF]	provide fluorescent contrast for the intercellular space of the esophagus epithelial cells	up to 100 μm								
641	654	639	641	654	Patent Blue VF			the limbs were bluish in color to the extent of being visible by naked eyes	strong fluorescence in the lumen	the lamina propria mucosae could be observed clear	high				
633	643	630	633	643	CCN(Cc1cccc(S(=O)(=O)O)c1)c1ccc(C(=C2C=CC(=[N+](CC)Cc3cccc(S(=O)(=O)O)c3)C=C2)c2ccccc2S(=O)(=O)[O-])cc1.N.N [Alphazurine FG]										
633	652	635	633	652	CCN(Cc1cccc(S(=O)(=O)O)c1)c1ccc(C(=C2C=CC(=[N+](CC)Cc3cccc(S(=O)(=O)O)c3)C=C2)c2ccc(S(=O)(=O)O)cc2)cc1.[Na+].[Na+] [Light Green SF]										
624	635	620	624	635	CCN(Cc1cccc(S(=O)(=O)[O-])c1)c1ccc(C(=C2C=CC(=[N+](CC)Cc3cccc(S(=O)(=O)[O-])c3)C=C2)c2ccccc2)cc1.[Na+] [Guinea Green B]							the lumen side exhibited strong fluorescence	high		
					CC1(C)C(/C=C/C=C/C=C/C=C2\N(CCCCS(=O)(=O)O)c3ccc4ccccc4c3C2(C)C)=[N+](CCCCS(=O)(=O)[O-])c2ccc3ccccc3c21 [IndoCyanine Green, reference compound]									the fluorescence intensity is lower than that of the Fast Green FCF	the fluorescence intensity was very low
